This passage reports IC50 results from patent US20230087118A1, “IMIDAZO[1,2-a][sequence] DERIVATIVES AND THEIR USE IN THE TREATMENT OF DISEASE” (priority 2019, published 2023).

Each structure is given as a SMILES string. Where a name gives a salt, the structure may show the parent alone.

The target of one test is T1, IRAK4 (Homo sapiens, UniProt Q9NWZ3).
T1 sequence (Q9NWZ3 1-460): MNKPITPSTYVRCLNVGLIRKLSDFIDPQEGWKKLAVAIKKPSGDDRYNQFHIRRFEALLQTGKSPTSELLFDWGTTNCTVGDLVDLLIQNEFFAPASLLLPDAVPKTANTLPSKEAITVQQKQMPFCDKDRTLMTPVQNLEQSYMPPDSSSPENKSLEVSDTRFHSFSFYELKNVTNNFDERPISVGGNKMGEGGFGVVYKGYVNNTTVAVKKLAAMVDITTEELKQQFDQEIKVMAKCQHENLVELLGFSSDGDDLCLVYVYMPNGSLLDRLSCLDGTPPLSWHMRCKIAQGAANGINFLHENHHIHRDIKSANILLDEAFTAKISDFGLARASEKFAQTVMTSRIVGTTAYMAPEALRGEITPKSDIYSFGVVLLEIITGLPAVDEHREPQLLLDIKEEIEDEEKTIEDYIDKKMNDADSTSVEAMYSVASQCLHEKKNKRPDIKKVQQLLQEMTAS
Description: biochemical.
Details: not given
Consider `CC(C)Oc1nc2nc(C34COC(C)(C3)C4)cn2cc1C(=O)Nc1cnn2cc(C(F)F)cnc12` [Example 369, N-(6-(difluoromethyl)pyrazolo[1,5-a]pyrimidin-3-yl)-7-isopropoxy-2-(1-methyl-2-oxabicyclo[2.1.1]hexan-4-yl)imidazo[1,2-a]pyrimidine-6-carboxamide], for which the IC50 (as a rule, the concentration that inhibits the measured activity by half) was found to be 0.0008 µM.
As for `Cn1ccc(NC(=O)c2cn3cc(C45COC(C)(C4)C5)nc3nc2OCC2CC2)n1` [Example 370, 7-(Cyclopropylmethoxy)-N-(1-methyl-1H-pyrazol-3-yl)-2-(1-methyl-2-oxabicyclo[2.1.1]hexan-4-yl)imidazo[1,2-a]pyrimidine-6-carboxamide], the half-maximal inhibitory concentration (IC50) is 0.0016 µM.
Take `CC12CC(c3cn4cc(C(=O)Nc5cnn6cccnc56)c(OC5CCC5)nc4n3)(CO1)C2` [Example 371, 7-Cyclobutoxy-2-(1-methyl-2-oxabicyclo[2.1.1]hexan-4-yl)-N-(pyrazolo[1,5-a]pyrimidin-3-yl)imidazo[1,2-a]pyrimidine-6-carboxamide]: the IC50 is 0.0003 µM.
Take `CC(C)Oc1nc2nc(C34COC(C)(C3)C4)cn2cc1C(=O)Nc1ccn2nccc2n1` [Example 372, 7-Isopropoxy-2-(1-methyl-2-oxabicyclo[2.1.1]hexan-4-yl)-N-(pyrazolo[1,5-a]pyrimidin-5-yl)imidazo[1,2-a]pyrimidine-6-carboxamide]: inhibition was half-maximal at 0.0576 µM (IC50).
As to `CC(C)Oc1nc2nc(C34COC(C)(C3)C4)cn2cc1C(=O)Nc1cnc2cccnn12` [Example 373, N-(imidazo[1,2-b]pyridazin-3-yl)-7-isopropoxy-2-(1-methyl-2-oxabicyclo[2.1.1]hexan-4-yl)imidazo[1,2-a]pyrimidine-6-carboxamide], the IC50 was 0.0006 µM.
Compound `Cc1ccn2ncc(NC(=O)c3cn4cc(C56COC(C)(C5)C6)nc4nc3OC(C)C)c2n1` [Example 374, 7-Isopropoxy-2-(1-methyl-2-oxabicyclo[2.1.1]hexan-4-yl)-N-(5-methyl-pyrazolo[1,5-a]pyrimidin-3-yl)imidazo[1,2-a]pyrimidine-6-carboxamide] showed a 50% inhibitory concentration (IC50) of 0.0014 µM.
Turning to `CC(C)Oc1nc2nc(C34COC(C)(C3)C4)cn2cc1C(=O)Nc1cnn2cc(C3CC3)cnc12` [Example 375, N-(6-cyclopropylpyrazolo[1,5-a]pyrimidin-3-yl)-7-isopropoxy-2-(1-methyl-2-oxabicyclo[2.1.1]hexan-4-yl)imidazo[1,2-a]pyrimidine-6-carboxamide], it took 0.0067 µM to reach half-maximal inhibition (IC50).
The compound `CC(C)Oc1nc2nc(C34COC(C)(C3)C4)cn2cc1C(=O)Nc1snc2cccnc12` [Example 376, 7-Isopropoxy-N-(isothiazolo[4,3-b]pyridin-3-yl)-2-(1-methyl-2-oxabicyclo[2.1.1]hexan-4-yl)imidazo[1,2-a]pyrimidine-6-carboxamide] yielded an IC50 of 0.0018 µM.
In the case of `CC(C)Oc1nc2nc(C34COC(C)(C3)C4)cn2cc1C(=O)Nc1cccc2scnc12` [Example 378, N-(benzo[d]thiazol-4-yl)-7-isopropoxy-2-(1-methyl-2-oxabicyclo[2.1.1]hexan-4-yl)imidazo[1,2-a]pyrimidine-6-carboxamide], half-maximal inhibition (IC50) was put at 0.0002 µM.
`CC(C)Oc1nc2nc(C34COC(CF)(C3)C4)cn2cc1C(=O)Nc1cccn(C(F)F)c1=O` [Example 381, N-(1-(difluoromethyl)-2-oxo-1,2-dihydropyridin-3-yl)-2-(1-(fluoromethyl)-2-oxabicyclo[2.1.1]hexan-4-yl)-7-isopropoxyimidazo[1,2-a]pyrimidine-6-carboxamide]: the IC50 was 0.0004 µM.
With `CC(C)Oc1nc2nc(C34CCC(C)(CC3)OC4)cn2cc1C(=O)Nc1cc(F)n(C)n1` [Example 382, N-(5-fluoro-1-methyl-1H-pyrazol-3-yl)-7-isopropoxy-2-(1-methyl-2-oxabicyclo[2.2.2]octan-4-yl)imidazo[1,2-a]pyrimidine-6-carboxamide], the IC50 was 0.0046 µM.
The compound `CC(C)Oc1nc2nc(C34CCC(C)(CC3)OC4)cn2cc1C(=O)Nc1cccn(C(F)F)c1=O` [Example 384, N-(1-(difluoromethyl)-2-oxo-1,2-dihydropyridin-3-yl)-7-isopropoxy-2-(1-methyl-2-oxabicyclo[2.2.2]octan-4-yl)imidazo[1,2-a]pyrimidine-6-carboxamide] returned an IC50 of 0.0002 µM.
`CC(C)Oc1nc2nc(C34COC(C)(C3)C4)cn2cc1C(=O)Nc1cccc2ccnn12` [Example 385, 7-Isopropoxy-2-(1-methyl-2-oxabicyclo[2.1.1]hexan-4-yl)-N-(pyrazolo[1,5-a]pyridin-7-yl)imidazo[1,2-a]pyrimidine-6-carboxamide]: it took 0.0004 µM to reach half-maximal inhibition (IC50).
The compound `CC(C)Oc1nc2nc(C34COC(C)(C3)C4)cn2cc1C(=O)Nc1cccc(C(F)F)c1` [Example 386, N-(3-(difluoromethyl)phenyl)-7-isopropoxy-2-(1-methyl-2-oxabicyclo[2.1.1]hexan-4-yl)imidazo[1,2-a]pyrimidine-6-carboxamide] gave a 50% inhibitory concentration (IC50) of 0.0012 µM.
Consider `CC(C)Oc1nc2nc(C34COC(C)(C3)C4)cn2cc1C(=O)Nc1cccc(C2CC2)n1` [Example 387, N-(6-cyclopropylpyridin-2-yl)-7-isopropoxy-2-(1-methyl-2-oxabicyclo[2.1.1]hexan-4-yl)imidazo[1,2-a]pyrimidine-6-carboxamide], for which inhibition was half-maximal at 0.0009 µM (IC50).
The same measure, in the same setting: the result for `CC(C)Oc1nc2nc(C34COC(C)(C3)C4)cn2cc1C(=O)Nc1cccn(C(F)F)c1=O` [Example 388, N-(1-(difluoromethyl)-2-oxo-1,2-dihydropyridin-3-yl)-7-isopropoxy-2-(1-methyl-2-oxabicyclo[2.1.1]hexan-4-yl)imidazo[1,2-a]pyrimidine-6-carboxamide] reads 0.0002 µM; that for `CC(C)Oc1nc2nc(C34COC(C)(C3)C4)cn2cc1C(=O)Nc1cccnc1OC(F)F` [Example 389, N-(2-(difluoromethoxy)pyridin-3-yl)-7-isopropoxy-2-(1-methyl-2-oxabicyclo[2.1.1]hexan-4-yl)imidazo[1,2-a]pyrimidine-6-carboxamide], 0.0032 µM.

The same test, now with this note: IRAK4 Biochemical Assay (1 mM ATP, 2 h) IC50 (μM), 1 mM ATP, 2 h, 100 pM IRAK4.
`CC(C)Oc1nc2nc(C34COC(C)(C3)C4)cn2cc1C(=O)Nc1cccc2c1OCC2` [Example 377, N-(2,3-dihydrobenzofuran-7-yl)-7-isopropoxy-2-(1-methyl-2-oxabicyclo[2.1.1]hexan-4-yl)imidazo[1,2-a]pyrimidine-6-carboxamide trifluoroacetate] showed a half-maximal inhibitory concentration (IC50) of 0.0003 µM.
Consider `CC(C)Oc1nc2nc(C34COC(C)(C3)C4)cn2cc1C(=O)Nc1cccc2c1ncn2C` [Example 379, 7-Isopropoxy-N-(1-methyl-1H-benzo[d]imidazol-4-yl)-2-(1-methyl-2-oxabicyclo[2.1.1]hexan-4-yl)imidazo[1,2-a]pyrimidine-6-carboxamide trifluoroacetate], for which half-maximal inhibition (IC50) required 0.001 µM.
Same read-out and setting: the result for `CC(C)Oc1nc2nc(C34COC(C)(C3)C4)cn2cc1C(=O)Nc1csc2nccnc12` [Example 380, 7-Isopropoxy-2-(1-methyl-2-oxabicyclo[2.1.1]hexan-4-yl)-N-(thieno[2,3-b]pyrazin-7-yl)imidazo[1,2-a]pyrimidine-6-carboxamide trifluoroacetate] reads 0.0002 µM; that for `CC(C)Oc1nc2nc(C34CCC(C)(CC3)OC4)cn2cc1C(=O)Nc1cccc(C(F)F)n1` [Example 383, N-(6-(difluoromethyl)pyridin-2-yl)-7-isopropoxy-2-(1-methyl-2-oxabicyclo[2.2.2]octan-4-yl)imidazo[1,2-a]pyrimidine-6-carboxamide], 0.0001 µM.
